# Data: patent US20190330189A1, “ANTIBACTERIAL COMPOUNDS” (Janssen Sciences Ireland UC, priority 2015, published 2019)
# System: Mycobacterium tuberculosis strain H37Rv
# Assay: Test 1: MIC determination, resazurin fluorescence, M. tuberculosis H37Rv
# Type: cell-based
# Conditions: Mycobacterium tuberculosis, H37RV, read-out: pIC50 (converted)
row,SMILES,IC50 [µM]
1,CCc1nc2ccc(Cl)cn2c1C(=O)NCC1CC12CCN(c1ccc(OC(F)(F)F)cc1)CC2 (stereo not drawn) [Compound 1],0.00933

# Same assay, conditions: Mycobacterium tuberculosis, H37RV, read-out: pIC50 * (converted)
row,SMILES,IC50 [µM]
1,CCc1nc2ccc(Cl)cn2c1C(=O)NCC1CC12CCN(c1ccc(OC(F)(F)F)cc1)CC2 (stereo not drawn) [Compound 1],0.0132

# System: Mycobacterium tuberculosis strain EH 4.0 (361.269)
# Assay: Test 4: MIC determination, resazurin fluorescence, strain EH 4.0
# Type: cell-based
# Conditions: Mycobacterium tuberculosis, read-out: pIC50, Test 4, M. tuberculosis strain EH 4.0 (361.269) (converted)
# From the text: TEST 4 (See Also Test 1 Above; in this Test a Different Strain of Mycobacterium tuberculosis Strain is Employed)
# Appropriate solutions of experimental and reference compounds were made in 96 well plates with 7H9 medium. Samples of Mycobacterium tuberculosis strain EH 4.0 (361.269) were taken from cultures in stationary growth phase. These were first diluted to obtain an optical density of 0.3 at 600 nm wavelength and then diluted 1/100, resulting in an inoculum of approximately 5×10 exp5 colony forming units per well. Plates were incubated at 37° C. in plastic bags to prevent evaporation. After 7 days, resazurin was added to all wells.
row,SMILES,IC50 [µM]
1,CCc1nc2sc(C)cn2c1C(=O)NCC1CC2(CCN(c3ccc(OC(F)(F)F)cc3)CC2)C1 [Compound 32],0.0398
2,O=C(NCC1CC12CCN(c1ccc(OC(F)(F)F)cc1)CC2)c1cc2n(c1)CCCC2 (stereo not drawn) [Compound 33],> 12.6
3,CCc1nc2cn(C)ccc-2c1C(=O)NCc1ccc(N2CC3(CC(F)C3)C2)cc1 [Compound 34],> 12.6
4,O=C(NCc1ccc(N2CC3(C2)CN(c2ccc(OC(F)(F)F)cc2)C3)cc1)c1cc2c([nH]1)CCCC2 [Compound 35],7.94
5,CCc1c(C(=O)NCc2ccc(N3CC4(CC(c5ccc(OC(F)(F)F)cc5)C4)C3)cc2)c2ccncc2n1C [Compound 36],7.94
6,O=C(NCc1ccc(N2CC3(CC(c4ccc(OC(F)(F)F)cc4)C3)C2)cc1)c1cc2c([nH]1)CCCC2 [Compound 37],3.98
7,CCc1c(C(=O)NCC2CC23CCN(c2ccc(OC(F)(F)F)cc2)CC3)c2cc(Cl)cnc2n1C (stereo not drawn) [Compound 38],> 12.6
8,CCc1c(C(=O)NCC2CC23CCN(c2ccc(OC(F)(F)F)cc2)CC3)c2cc(Cl)ccc2n1C (stereo not drawn) [Compound 39],> 12.6
9,O=C(NCC1CC12CCN(c1ccc(OC(F)(F)F)cc1)CC2)c1cc2c([nH]1)CCCC2 (stereo not drawn) [Compound 40],> 12.6
10,CCc1nc2n(c1C(=O)NCC1CC13CCN(c1ccc(OC(F)(F)F)cc1)CC3)CCN(C)C2 (stereo not drawn) [Compound 41],7.94
11,O=C(NCc1ccc(N2CC3(C2)CN(c2ccc(OC(F)(F)F)cc2)C3)cc1)c1cc2n(c1)CCCC2 [Compound 42],10
12,CCc1c(C(=O)NCC2CC3(CCN(c4ccc(OC(F)(F)F)cc4)CC3)C2)c2cc(Cl)cnc2n1C [Compound 43],> 12.6
13,O=C(NCC1CC2(CCN(c3ccc(OC(F)(F)F)cc3)CC2)C1)c1cc2c([nH]1)CCCC2 [Compound 44],7.94
14,O=C(NCc1ccc(N2CC3(CC(c4ccc(OC(F)(F)F)cc4)C3)C2)cc1)c1cc2n(c1)CCCC2 [Compound 45],7.94
15,CCc1nc2n(c1C(=O)NCC1CC3(CCN(c4ccc(OC(F)(F)F)cc4)CC3)C1)CCN(C)C2 [Compound 46],7.94
16,CCc1c(C(=O)NCc2ccc(N3CC4(C3)CN(c3ccc(OC(F)(F)F)cc3)C4)cc2)c2ccncc2n1C [Compound 47],6.31
17,CCc1nc2n(c1C(=O)NCC1CC13CCN(c1ccc(OC(F)(F)F)cc1)CC3)CCCC2 (stereo not drawn) [Compound 48],6.31
18,CCc1c(C(=O)NCC2CC23CCN(c2ccc(OC(F)(F)F)cc2)CC3)c2ccncc2n1C (stereo not drawn) [Compound 49],> 12.6
19,CCc1nc2cn(C)ccc-2c1C(=O)NCC1CC2(CCN(c3ccc(OC(F)(F)F)cc3)CC2)C1 [Compound 50],> 12.6
20,CCc1nc2ccn(C)cc-2c1C(=O)NCc1ccc(N2CC3(C2)CN(c2ccc(OC(F)(F)F)cc2)C3)cc1 [Compound 51],6.31
21,CCc1c(C(=O)NCC2CC3(CCN(c4ccc(OC(F)(F)F)cc4)CC3)C2)c2ccncc2n1C [Compound 52],7.94
22,CCc1nc2ccn(C)cc-2c1C(=O)NCC1CC12CCN(c1ccc(OC(F)(F)F)cc1)CC2 (stereo not drawn) [Compound 53],> 12.6

row,SMILES,IC50 [µM]
1,CCc1nc2cnc(Cl)cn2c1C(=O)NCC1CC12CCN(c1ccc(OC(F)(F)F)cc1)CC2 (stereo not drawn) [Compound 54],7.94
2,CCc1c(C(=O)NCC2CC23CCN(c2ccc(OC(F)(F)F)cc2)CC3)c2cnccc2n1C (stereo not drawn) [Compound 55],> 12.6
3,COc1ccn2nc(C)c(C(=O)NCc3ccc(C4CC5(C4)CN(c4ccc(OC(F)(F)F)cc4)C5)cc3)c2c1 [Compound 56],0.00631
4,COc1ccn2nc(C)c(C(=O)NCc3ccc(N4CC5(C4)CN(c4ccc(OC(F)(F)F)cc4)C5)cc3)c2c1 [Compound 57],0.00794
5,CCc1nc2cnc(Cl)cn2c1C(=O)NCc1ccc(N2CC3(C2)CN(c2ccc(OC(F)(F)F)cc2)C3)cc1 [Compound 58],0.1
6,COc1ccn2nc(C)c(C(=O)NCC3CC4(CCN(c5ccc(OC(F)(F)F)cc5)CC4)C3)c2c1 [Compound 59],0.316
7,Cc1nc2ncc(Cl)cn2c1C(=O)NCC1CC2(CCN(c3ccc(OC(F)(F)F)cc3)CC2)C1 [Compound 60],0.1
8,CCc1nc2n(c1C(=O)NCC1CC3(CCN(c4ccc(OC(F)(F)F)cc4)CC3)C1)CCCC2 [Compound 61],0.631
9,CCc1nc2sc(C)cn2c1C(=O)NCC1CC12CCN(c1ccc(OC(F)(F)F)cc1)CC2 (stereo not drawn) [Compound 64],0.1
10,CCc1nc2n(c1C(=O)NCc1ccc(C3CC4(C3)CN(c3ccc(OC(F)(F)F)cc3)C4)cc1)CCCC2 [Compound 65],0.01
11,CCc1nc2ncc(Cl)cn2c1C(=O)NCc1ccc(N2CC3(CC(c4ccc(S(F)(F)(F)(F)F)cc4)C3)C2)cc1 [Compound 66],0.00794
12,CCc1nc2sc(C)cn2c1C(=O)NCc1ccc(C2CC3(C2)CN(c2ccc(OC(F)(F)F)cc2)C3)cc1 [Compound 67],0.01
13,CCc1nc2n(c1C(=O)NCc1ccc(C3CC4(C3)CN(c3ccc(OC(F)(F)F)cc3)C4)cc1)CCN(C)C2 [Compound 69],0.0316
14,CCc1nc2n(c1C(=O)NCc1ccc(N3CC4(C3)CN(c3ccc(OC(F)(F)F)cc3)C4)cc1)CCN(C)C2 [Compound 70],0.316
15,CCc1nc2n(c1C(=O)NCc1ccc(N3CC4(CC(c5ccc(OC(F)(F)F)cc5)C4)C3)cc1)CCN(C)C2 [Compound 71],0.316
16,CCc1nc2ccc(Cl)cn2c1C(=O)NCc1ccc(N2CC3(CC(Oc4ccc(C(F)(F)F)cc4)C3)C2)cc1 [Compound 72],0.01
17,CCc1nc2ncc(Cl)cn2c1C(=O)NCc1ccc(N2CC3(CC(Oc4ccc(C(F)(F)F)cc4)C3)C2)cc1 [Compound 73],0.2
18,CCc1nc2n(c1C(=O)NCc1ccc(N3CC4(CC(Oc5ccc(C(F)(F)F)cc5)C4)C3)cc1)CCN(C)C2 [Compound 74],0.0631
19,CCc1nc2ccc(Cl)cn2c1C(=O)NCc1ccc(N2CC3(CC(c4cccnc4)C3)C2)cc1 [Compound 77],0.794
20,CCc1nc2n(c1C(=O)NCc1ccc(N3CC4(CC(F)C4)C3)cc1)CCN(C)C2 [Compound 78],2.51
21,CCc1c(C(=O)NCc2ccc(N3CC4(C3)CN(c3ccc(OC(F)(F)F)cc3)C4)cc2)c2cc(Cl)cnc2n1C [Compound 79],> 12.6
22,CCc1c(C(=O)NCc2ccc(N3CC4(C3)CN(c3ccc(OC(F)(F)F)cc3)C4)cc2)c2cc(Cl)ccc2n1C [Compound 80],> 12.6

row,SMILES,IC50 [µM]
1,CCc1nc2ccc(Cl)cn2c1C(=O)NCc1ccc(N2CCC3(CC2)CC(F)C3)cc1 [Compound 81],0.00501
2,CCc1nn2ccc(C)nc2c1C(=O)NCc1ccc(N2CC3(CC(c4ccc(OC(F)(F)F)cc4)C3)C2)cc1 [Compound 97],> 12.6
3,CCc1nn2c(C)ccnc2c1C(=O)NCc1ccc(N2CC3(CC(c4ccc(OC(F)(F)F)cc4)C3)C2)cc1 [Compound 98],> 12.6
4,CCc1nc2cn(C)ccc-2c1C(=O)NCC1CC12CCN(c1ccc(OC(F)(F)F)cc1)CC2 (stereo not drawn) [Compound 99],> 12.6
5,O=C(NCC1CC2(CCN(c3ccc(OC(F)(F)F)cc3)CC2)C1)c1cc2n(c1)CCCC2 [Compound 100],> 12.6
6,CCc1nc2cnc(Cl)cn2c1C(=O)NCC1CC2(CCN(c3ccc(OC(F)(F)F)cc3)CC2)C1 [Compound 101],1.58
7,CCc1nn2ccc(C)nc2c1C(=O)NCc1ccc(C2CC3(C2)CN(c2ccc(OC(F)(F)F)cc2)C3)cc1 [Compound 102],3.98
8,CCc1nn2c(C)ccnc2c1C(=O)NCc1ccc(C2CC3(C2)CN(c2ccc(OC(F)(F)F)cc2)C3)cc1 [Compound 103],7.94
9,CCc1nc2ccn(C)cc-2c1C(=O)NCc1ccc(N2CC3(CC(c4ccc(OC(F)(F)F)cc4)C3)C2)cc1 [Compound 104],> 12.6
10,CCc1nn2c(C)ccnc2c1C(=O)NCC1CC2(CCN(c3ccc(OC(F)(F)F)cc3)CC2)C1 [Compound 105],> 12.6
11,CCc1nn2ccc(C)nc2c1C(=O)NCC1CC12CCN(c1ccc(OC(F)(F)F)cc1)CC2 (stereo not drawn) [Compound 106],> 12.6
12,CCc1nn2ccc(C)nc2c1C(=O)NCC1CC2(CCN(c3ccc(OC(F)(F)F)cc3)CC2)C1 [Compound 107],> 12.6
13,CCc1nn2c(C)ccnc2c1C(=O)NCC1CC12CCN(c1ccc(OC(F)(F)F)cc1)CC2 (stereo not drawn) [Compound 108],> 12.6
14,CCc1nc2ccn(C)cc-2c1C(=O)NCC1CC2(CCN(c3ccc(OC(F)(F)F)cc3)CC2)C1 [Compound 109],> 12.6
15,CCc1[nH]c2ncc(Cl)cc2c1C(=O)NCC1CC12CCN(c1ccc(OC(F)(F)F)cc1)CC2 (stereo not drawn) [Compound 110],> 12.6
16,CCc1c(C(=O)NCC2CC3(CCN(c4ccc(OC(F)(F)F)cc4)CC3)C2)c2cnccc2n1C [Compound 111],> 12.6
17,CCc1nc2ccn(C)cc-2c1C(=O)NCc1ccc(C2CC3(C2)CN(c2ccc(OC(F)(F)F)cc2)C3)cc1 [Compound 112],3.16
18,CCc1[nH]c2ncc(Cl)cc2c1C(=O)NCC1CC2(CCN(c3ccc(OC(F)(F)F)cc3)CC2)C1 [Compound 113],> 12.6
19,CCc1c(C(=O)NCc2ccc(C3CC4(C3)CN(c3ccc(OC(F)(F)F)cc3)C4)cc2)c2cc(Cl)ccc2n1C [Compound 114],12.6
20,O=C(NCc1ccc(C2CC3(C2)CN(c2ccc(OC(F)(F)F)cc2)C3)cc1)c1cc2c([nH]1)CCCC2 [Compound 115],3.16
21,CCc1nc2ccc(Cl)cn2c1C(=O)NCc1ccc(C2CC3(C2)CN(C=O)C3)cc1 [Compound 116],0.316

# Same assay, conditions: Test 4, M. tuberculosis strain EH 4.0 (361.269)
row,SMILES,pIC50
1,CCc1nc2ccc(Cl)cn2c1C(=O)NCC1CC12CCN(c1ccc(OC(F)(F)F)cc1)CC2 (stereo not drawn) [Compound 1],7.0
2,CCc1nc2ccc(Cl)cn2c1C(=O)NCC1CC12CCN(c1ccc(OC(F)(F)F)cc1)CC2 (stereo not drawn) [Compound 63],6.5
